Source: patent US6054435A, “6-O-substituted macrolides having antibacterial activity” (priority 1999, dated 2000)
Values after ≈ are worked out from the molar mass of the structure shown.

Assays:
Experiment in all cases: in vitro antibacterial activity (MIC), agar dilution
Assay type in all cases: cell-based
[1] = tested on: Streptococcus Pneumonia GYR 1171; conditions: organism code YY; BHI agar, 35-37° C., 20 to 24 hours; unit assumed
Description: (§1) Representative compounds of the present invention were assayed in vitro for antibacterial activity as follows: Twelve petri dishes containing successive aqueous dilutions of the test compound mixed with 10 mL of sterilized Brain Heart Infusion (BHI) agar (Difco 0418-01-5) were prepared. Each plate was inoculated with 1:100 (or 1:10 for slow-growing strains, such as Micrococcus and Streptococcus) dilutions of up to 32 different microorganisms, using a Steers replicator block. […] In addition, a control plate, using BHI agar containing no test compound, was prepared and incubated at the beginning and end of each test.
(§2) An additional plate containing a compound having known susceptibility patterns for the organisms being tested and belonging to the same antibiotic class as the test compound was also prepared and incubated as a further control, as well as to provide test-to-test comparability.
(§3) After incubation, each plate was visually inspected. The minimum inhibitory concentration (MIC) was defined as the lowest concentration of drug yielding no growth, a slight haze, or sparsely isolated colonies on the inoculum spot as compared to the growth control.

Candida albicans CCH 442 = conditions: organism code TT; BHI agar, 35-37° C., 20 to 24 hours; unit assumed
Description: as §1, §2, §3

[2] = tested on: Streptococcus pyogenes PIU 2548; conditions: organism code NN; BHI agar, 35-37° C., 20 to 24 hours; unit assumed
Description: as §1, §2, §3

[3] = tested on: Micrococcus luteus ATCC 4698; conditions: organism code PP; BHI agar, 35-37° C., 20 to 24 hours; unit assumed
Description: as §1, §2, §3

Escherichia coli DC-2 = conditions: organism code SS; BHI agar, 35-37° C., 20 to 24 hours; unit assumed
Description: as §1, §2, §3

[4] = tested on: Staphylococcus aureus NCTC10649M; conditions: organism code EE; BHI agar, 35-37° C., 20 to 24 hours; unit assumed
Description: as §1, §2, §3

[5] = tested on: Staphylococcus aureus ATCC 6538P; conditions: organism code AA; BHI agar, 35-37° C., 20 to 24 hours; unit assumed
Description: as §1, §2, §3

[6] = tested on: Staphylococcus aureus 1775; conditions: organism code GG; BHI agar, 35-37° C., 20 to 24 hours; unit assumed
Description: as §1, §2, §3

[7] = tested on: Staphylococcus aureus CMX 553; conditions: organism code FF; BHI agar, 35-37° C., 20 to 24 hours; unit assumed
Description: as §1, §2, §3

[8] = tested on: Enterococcus faecium ATCC 8043; conditions: organism code II; BHI agar, 35-37° C., 20 to 24 hours; unit assumed
Description: as §1, §2, §3

[9] = tested on: Staphylococcus epidermidis 3519; conditions: organism code HH; BHI agar, 35-37° C., 20 to 24 hours; unit assumed
Description: as §1, §2, §3

[10] = tested on: Micrococcus luteus ATCC 9341; conditions: organism code OO; BHI agar, 35-37° C., 20 to 24 hours; unit assumed
Description: as §1, §2, §3

[11] = tested on: Streptococcus agalactiae CMX 508; conditions: organism code KK; BHI agar, 35-37° C., 20 to 24 hours; unit assumed
Description: as §1, §2, §3

Escherichia coli JUHL = conditions: organism code QQ; BHI agar, 35-37° C., 20 to 24 hours; unit assumed
Description: as §1, §2, §3

[12] = tested on: Mycobacterium smegmatis ATCC 114; conditions: organism code UU; BHI agar, 35-37° C., 20 to 24 hours; unit assumed
Description: as §1, §2, §3

[13] = tested on: Streptococcus Pneumonia 5979; conditions: organism code ZZ; BHI agar, 35-37° C., 20 to 24 hours; unit assumed
Description: as §1, §2, §3

[14] = tested on: Staphylococcus aureus CMX 642A; conditions: organism code DD; BHI agar, 35-37° C., 20 to 24 hours; unit assumed
Description: as §1, §2, §3

[15] = tested on: Streptococcus pyogenes EES61; conditions: organism code LL; BHI agar, 35-37° C., 20 to 24 hours; unit assumed
Description: as §1, §2, §3

[16] = tested on: Streptococcus Pneumonia ATCC6303; conditions: organism code XX; BHI agar, 35-37° C., 20 to 24 hours; unit assumed
Description: as §1, §2, §3

Escherichia coli SS = conditions: organism code RR; BHI agar, 35-37° C., 20 to 24 hours; unit assumed
Description: as §1, §2, §3

[17] = tested on: Staphylococcus aureus A-5278; conditions: organism code CC; BHI agar, 35-37° C., 20 to 24 hours; unit assumed
Description: as §1, §2, §3

[18] = tested on: Streptococcus Pneumonia 5649; conditions: organism code ZZA; BHI agar, 35-37° C., 20 to 24 hours; unit assumed
Description: as §1, §2, §3

[19] = tested on: Streptococcus bovis A-5169; conditions: organism code JJ; BHI agar, 35-37° C., 20 to 24 hours; unit assumed
Description: as §1, §2, §3

[20] = tested on: Staphylococcus aureus A5177; conditions: organism code BB; BHI agar, 35-37° C., 20 to 24 hours; unit assumed
Description: as §1, §2, §3

[21] = tested on: Haemophilis Influenzae DILL AMP R; conditions: organism code WW; BHI agar, 35-37° C., 20 to 24 hours; unit assumed
Description: as §1, §2, §3

[22] = tested on: Nocardia Asteroides ATCC9970; conditions: organism code VV; BHI agar, 35-37° C., 20 to 24 hours; unit assumed
Description: as §1, §2, §3

[23] = tested on: Streptococcus pyogenes 930; conditions: organism code MM; BHI agar, 35-37° C., 20 to 24 hours; unit assumed
Description: as §1, §2, §3

## CC[C@H]1OC(=O)[C@H](C)C(=O)[C@H](C)[C@@H](O[C@@H]2O[C@H](C)C[C@H](N(C)C)[C@H]2O)[C@](C)(OCC#Cc2ccc(-c3cccc(Cl)c3)s2)C[C@@H](C)C(=O)[C@H](C)[C@H]2NC(=O)O[C@@]21C [Example 16]
[1]
  MIC: 0.03 µg/mL (≈ 0.0362 µM)
Candida albicans CCH 442
  MIC: > 100 µg/mL
[2]
  MIC: 0.2 µg/mL (≈ 0.241 µM)
[3]
  MIC: 0.2 µg/mL (≈ 0.241 µM)
Escherichia coli DC-2
  MIC: > 100 µg/mL
[4]
  MIC: 0.2 µg/mL (≈ 0.241 µM)
[5]
  MIC: 0.1 µg/mL (≈ 0.121 µM)
[6]
  MIC: 12.5 µg/mL (≈ 15.1 µM)
[7]
  MIC: 0.2 µg/mL (≈ 0.241 µM)
[8]
  MIC: 0.1 µg/mL (≈ 0.121 µM)
[9]
  MIC: 0.2 µg/mL (≈ 0.241 µM)
[10]
  MIC: 0.02 µg/mL (≈ 0.0241 µM)
[11]
  MIC: 0.02 µg/mL (≈ 0.0241 µM)
Escherichia coli JUHL
  MIC: > 100 µg/mL
[12]
  MIC: 0.2 µg/mL (≈ 0.241 µM)
[13]
  MIC: 2 µg/mL (≈ 2.41 µM)
[14]
  MIC: 0.2 µg/mL (≈ 0.241 µM)
[15]
  MIC: 0.1 µg/mL (≈ 0.121 µM)
[16]
  MIC: 0.03 µg/mL (≈ 0.0362 µM)
Escherichia coli SS
  MIC: 0.39 µg/mL (≈ 0.47 µM)
[17]
  MIC: 25 µg/mL (≈ 30.1 µM)
[18]
  MIC: 0.25 µg/mL (≈ 0.301 µM)
[19]
  MIC: 0.02 µg/mL (≈ 0.0241 µM)
[20]
  MIC: 0.2 µg/mL (≈ 0.241 µM)
[21]
  MIC: 4 µg/mL (≈ 4.82 µM)
[22]
  MIC: 0.2 µg/mL (≈ 0.241 µM)

## CC[C@H]1OC(=O)[C@H](C)C(=O)[C@H](C)[C@@H](O[C@@H]2O[C@H](C)C[C@H](N(C)C)[C@H]2O)[C@](C)(OCC#Cc2ccc(-c3cc(Cl)cc(Cl)c3)s2)C[C@@H](C)C(=O)[C@H](C)[C@H]2NC(=O)O[C@@]21C [Example 17]
[1]
  MIC: 0.125 µg/mL (≈ 0.145 µM)
Candida albicans CCH 442
  MIC: > 100 µg/mL
[2]
  MIC: 0.39 µg/mL (≈ 0.451 µM)
[3]
  MIC: 0.78 µg/mL (≈ 0.903 µM)
Escherichia coli DC-2
  MIC: > 100 µg/mL
[4]
  MIC: 1.56 µg/mL (≈ 1.81 µM)
[5]
  MIC: 0.39 µg/mL (≈ 0.451 µM)
[6]
  MIC: 12.5 µg/mL (≈ 14.5 µM)
[7]
  MIC: 0.78 µg/mL (≈ 0.903 µM)
[8]
  MIC: 0.78 µg/mL (≈ 0.903 µM)
[9]
  MIC: 0.78 µg/mL (≈ 0.903 µM)
[10]
  MIC: 0.39 µg/mL (≈ 0.451 µM)
[11]
  MIC: 0.2 µg/mL (≈ 0.232 µM)
Escherichia coli JUHL
  MIC: > 100 µg/mL
[12]
  MIC: 0.78 µg/mL (≈ 0.903 µM)
[13]
  MIC: 1 µg/mL (≈ 1.16 µM)
[14]
  MIC: 0.78 µg/mL (≈ 0.903 µM)
[15]
  MIC: 0.39 µg/mL (≈ 0.451 µM)
Escherichia coli SS
  MIC: 12.5 µg/mL (≈ 14.5 µM)
[23]
  MIC: 3.1 µg/mL (≈ 3.59 µM)
[17]
  MIC: 12.5 µg/mL (≈ 14.5 µM)
[18]
  MIC: 1 µg/mL (≈ 1.16 µM)
[19]
  MIC: 0.2 µg/mL (≈ 0.232 µM)
[20]
  MIC: 0.78 µg/mL (≈ 0.903 µM)
[21]
  MIC: 8 µg/mL (≈ 9.26 µM)
[22]
  MIC: 0.78 µg/mL (≈ 0.903 µM)

## CC[C@H]1OC(=O)[C@H](C)[C@@H](O[C@H]2C[C@@](C)(OC)[C@@H](O)[C@H](C)O2)[C@H](C)[C@@H](O[C@@H]2O[C@H](C)C[C@H](N(C)C)[C@H]2O)[C@](C)(O)C[C@@H](C)C(=O)[C@H](C)[C@@H](O)[C@]1(C)O [Ery. A, Erythromycin A, reference compound]
[1]
  MIC: 0.06 µg/mL (≈ 0.0818 µM)
Candida albicans CCH 442
  MIC: > 100 µg/mL
[2]
  MIC: 6.2 µg/mL (≈ 8.45 µM)
[3]
  MIC: 0.2 µg/mL (≈ 0.273 µM)
Escherichia coli DC-2
  MIC: > 100 µg/mL
[4]
  MIC: 0.39 µg/mL (≈ 0.531 µM)
[5]
  MIC: 0.2 µg/mL (≈ 0.273 µM)
[6]
  MIC: > 100 µg/mL
[7]
  MIC: 0.39 µg/mL (≈ 0.531 µM)
[8]
  MIC: 0.05 µg/mL (≈ 0.0681 µM)
[9]
  MIC: 0.39 µg/mL (≈ 0.531 µM)
[10]
  MIC: 0.05 µg/mL (≈ 0.0681 µM)
[11]
  MIC: 0.05 µg/mL (≈ 0.0681 µM)
Escherichia coli JUHL
  MIC: > 100 µg/mL
[12]
  MIC: 3.1 µg/mL (≈ 4.22 µM)
[14]
  MIC: 0.39 µg/mL (≈ 0.531 µM)
[15]
  MIC: 0.05 µg/mL (≈ 0.0681 µM)
[16]
  MIC: 0.06 µg/mL (≈ 0.0818 µM)
Escherichia coli SS
  MIC: 0.78 µg/mL (≈ 1.06 µM)
[23]
  MIC: > 100 µg/mL
[17]
  MIC: > 100 µg/mL
[18]
  MIC: 16 µg/mL (≈ 21.8 µM)
[19]
  MIC: 0.02 µg/mL (≈ 0.0273 µM)
[20]
  MIC: 3.1 µg/mL (≈ 4.22 µM)
[21]
  MIC: 4 µg/mL (≈ 5.45 µM)
[22]
  MIC: 0.1 µg/mL (≈ 0.136 µM)
